From patent US20050288299A1, “Azaindole derivatives as inhibitors of p38 kinase” (priority 2002, published 2005)

Molecular target: p38α kinase (Homo sapiens, UniProt Q16539)
Assay: p38α Flash Plate Assay (p38 kinase inhibition)
Type: biochemical
Conditions: in vitro; 150 μM ATP, 0.05 mM biotinylated peptide substrate, 5 nM enzyme, 60 minute incubation at 30° Celsius; read-out: P38 α-FLASHPLATE IC50
Protocol: Assay for p38 Kinase Inhibition—p38α Flash Plate Assay
The compounds to be tested were solubilized in DMSO and diluted with water to the desired concentrations. The p38 kinase was diluted to 20 nM into a buffer containing 20 mM MOPS, pH 7.0, 25 mM beta-glycerol phosphate, 2 mg/ml gelatin, 0.5 mM EGTA (ethylene-bis-(oxyethylenenitrilo)-tetraacetic acid), and 4 mM dithiothreitol (DTT).
The reaction was carried out by mixing 20 μl test compound with 10 μl of a substrate cocktail containing 0.2 mM biotinylated peptide substrate and 0.6 mM ATP (+100 μCi/ml gamma-^33P-ATP) in a 5× assay buffer. The reaction was initiated by the addition of 10 μl of p38 kinase. Final assay conditions were 25 mM MOPS, pH 7.0, 26.25 mM beta-glycerol phosphate, 80 mM KCl, 22 mM MgCl2, 3 mM MgSO4, 1 mg/ml gelatin, 0.625 mM EGTA, 1 mM DTT, 0.05 mM peptide substrate, 150 μM ATP, and 5 nM enzyme. After a 60 minute incubation at 30° Celsius, the reaction was stopped by the addition of 10 μl per reaction of 0.25 M phosphoric acid.
A portion of the reaction was transferred to a streptavidin-coated Flash Plate (Perkin Elmer); the Flash Plate was incubated for 60 minutes at 30° Celsius and then washed 3× with PBS containing 0.01% Tween-20.
Counts incorporated are determined on a scintillation counter. Relative enzyme activity was calculated by subtracting background counts (counts measured in the absence of enzyme) from each result, and comparing the resulting counts to those obtained in the absence of inhibitor. IC50 values were determined with curve-fitting plots available with common software packages. The IC50 was expressed as the concentration of compound which inhibited the enzyme activity by 50%.

Sequence of p38α kinase (Q16539 whole entry): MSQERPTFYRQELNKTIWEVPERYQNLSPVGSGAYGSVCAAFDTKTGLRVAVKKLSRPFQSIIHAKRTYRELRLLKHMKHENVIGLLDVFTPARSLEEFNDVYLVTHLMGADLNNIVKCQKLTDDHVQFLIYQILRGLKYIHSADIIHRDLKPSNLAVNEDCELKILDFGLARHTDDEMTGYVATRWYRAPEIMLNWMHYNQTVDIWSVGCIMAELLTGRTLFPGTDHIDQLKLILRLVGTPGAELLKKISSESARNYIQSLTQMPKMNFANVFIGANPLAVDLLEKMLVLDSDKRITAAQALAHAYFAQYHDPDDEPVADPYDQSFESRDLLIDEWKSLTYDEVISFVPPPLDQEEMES

IC50	SMILES
30 nM	COc1nc2[nH]cc(C(=O)C(=O)N3CCCC3)c2cc1C(=O)N1C[C@H](C)N(Cc2ccc(F)cc2)C[C@H]1C [No. 5, 1-{5-[4-(4-Fluoro-benzyl)-2R,5S-dimethyl-piperazine-1-carbonyl]-6-methoxy-1H-pyrrolo[2,3-b]pyridin-3-yl}-2-pyrrolidin-1-yl-ethane-1,2-dione]
38 nM	COc1nc2[nH]c(C)c(C(=O)C(=O)N3CCCC3)c2cc1C(=O)N1CCC(Cc2ccc(F)cc2)CC1 [compound 15]
39 nM	CCNC(=O)C(=O)c1c[nH]c2nc(OC)c(C(=O)N3CCC(Cc4ccc(F)cc4)CC3)cc12 [compound 16]
57 nM	COc1nc2[nH]cc(C(=O)C(N)=O)c2cc1C(=O)N1CCC(Cc2ccc(F)cc2)CC1 [compound 17]
20 nM	CNC(=O)C(=O)c1c[nH]c2nc(OC)c(C(=O)N3C[C@H](C)N(Cc4ccc(F)cc4)C[C@H]3C)cc12 [compound 18]
8.2 nM	COc1nc2[nH]cc(C(=O)C(=O)N(C)C)c2cc1C(=O)N1C[C@H](C)N(Cc2ccc(F)cc2)C[C@H]1C [compound 19]
12 nM	CCN(C)C(=O)C(=O)c1c[nH]c2nc(OC)c(C(=O)N3C[C@H](C)N(Cc4ccc(F)cc4)C[C@H]3C)cc12 [compound 20]
10 nM	COc1nc2[nH]cc(C(=O)C(=O)N3CC[C@@H](O)C3)c2cc1C(=O)N1C[C@H](C)N(Cc2ccc(F)cc2)C[C@H]1C [compound 21]
70 nM	COc1nc2[nH]cc(C(=O)C(=O)N(C)C)c2cc1C(=O)N1C[C@H](C)N(C(c2ccccc2)c2ccccc2)C[C@H]1C [compound 22]
120 nM	COc1nc2[nH]cc(C(=O)C(=O)N3CCCC3)c2cc1C(=O)N1C[C@H](C)N(C(c2ccccc2)c2ccccc2)C[C@H]1C [compound 23]
42 nM	CNC(=O)C(=O)c1c[nH]c2nc(OC)c(C(=O)N3C[C@H](C)N(C(c4ccccc4)c4ccccc4)C[C@H]3C)cc12 [compound 24]
130 nM	COc1nc2[nH]cc(C(=O)C(=O)NC3CCCC3)c2cc1C(=O)N1C[C@H](C)N(C(c2ccccc2)c2ccccc2)C[C@H]1C [compound 25]
95 nM	COc1nc2[nH]cc(C(=O)C(F)(F)F)c2cc1C(=O)N1CCC(Cc2ccc(F)cc2)CC1 [compound 26]
10 nM	COc1nc2[nH]cc(C(=O)C(N)=O)c2cc1C(=O)N1C[C@H](C)N(Cc2ccc(F)cc2)C[C@H]1C [compound 30]
100 nM	COc1nc2[nH]cc(C(=O)C(N)=O)c2cc1C(=O)N1CCN(Cc2ccc(F)cc2)C[C@H]1C [compound 31]
30 nM	CNC(=O)C(=O)c1c[nH]c2nc(OC)c(C(=O)N3CCN([C@H](C)c4ccc(F)cc4)C[C@H]3C)cc12 [compound 32]
15 nM	COc1nc2[nH]cc(C(=O)C(=O)O)c2cc1C(=O)N1CCC(Cc2ccc(F)cc2)CC1 [compound 33]
30 nM	CCOc1nc2[nH]cc(C(=O)C(=O)NC)c2cc1C(=O)N1C[C@H](C)N(Cc2ccc(F)cc2)C[C@H]1C [compound 34]
20 nM	CCOc1nc2[nH]cc(C(=O)C(N)=O)c2cc1C(=O)N1C[C@H](C)N(Cc2ccc(F)cc2)C[C@H]1C [compound 35]

IC50	SMILES
64 nM	CCOc1nc2[nH]cc(C(=O)C(=O)NC)c2cc1C(=O)N1CCC(Cc2ccc(F)cc2)CC1 [compound 36]
67 nM	CCOc1nc2[nH]cc(C(=O)C(N)=O)c2cc1C(=O)N1CCC(Cc2ccc(F)cc2)CC1 [compound 37]
1500 nM	COc1ccc(Cn2ccc3cc(C(=O)N4C[C@H](C)N(Cc5ccc(F)cc5)C[C@H]4C)c(OC)nc32)cc1 [compound 38]
610 nM	CNC(=O)C(=O)c1cn(Cc2ccc(OC)cc2)c2nc(OC)c(C(=O)N3C[C@H](C)N(Cc4ccc(F)cc4)C[C@H]3C)cc12 [compound 39]
420 nM	Cc1nc2[nH]ccc2cc1C(=O)N1C[C@H](C)N(Cc2ccc(F)cc2)C[C@H]1C [compound 40]
20 nM	COc1nc2c(cc1C(=O)N1C[C@H](C)N(Cc3ccc(F)cc3)C[C@H]1C)c(C(=O)C(N)=O)cn2C [compound 41]
20 nM	CNC(=O)C(=O)c1cn(C)c2nc(OC)c(C(=O)N3C[C@H](C)N(Cc4ccc(F)cc4)C[C@H]3C)cc12 [compound 42]
10 nM	COc1nc2c(cc1C(=O)N1C[C@H](C)N(Cc3ccc(F)cc3)C[C@H]1C)c(C(=O)C(=O)N(C)C)cn2C [compound 43]
70 nM	CCNC(=O)C(=O)c1cn(C)c2nc(OC)c(C(=O)N3C[C@H](C)N(Cc4ccc(F)cc4)C[C@H]3C)cc12 [compound 44]
20 nM	COc1nc2c(cc1C(=O)N1C[C@H](C)N(Cc3ccc(F)cc3)C[C@H]1C)c(C(=O)C(=O)N(C)OC)cn2C [compound 45]
50 nM	COc1nc2c(cc1C(=O)N1C[C@H](C)N(Cc3ccc(F)cc3)C[C@H]1C)c(C(=O)C(=O)N1CCCC1)cn2C [compound 46]
20 nM	CCNC(=O)C(=O)c1c[nH]c2nc(OC)c(C(=O)N3C[C@H](C)N(Cc4ccc(F)cc4)C[C@H]3C)cc12 [compound 47]
50 nM	COc1nc2[nH]cc(C(=O)C(=O)NC(C)C)c2cc1C(=O)N1C[C@H](C)N(Cc2ccc(F)cc2)C[C@H]1C [compound 48]
60 nM	COc1nc2c(cc1C(=O)N1C[C@H](C)N(Cc3ccc(F)cc3)C[C@H]1C)c(C(=O)C(=O)NC(C)C)cn2C [compound 49]
40 nM	CONC(=O)C(=O)c1cn(C)c2nc(OC)c(C(=O)N3C[C@H](C)N(Cc4ccc(F)cc4)C[C@H]3C)cc12 [compound 50]
60 nM	CCNC(=O)C(=O)c1cn(COC)c2nc(OC)c(C(=O)N3C[C@H](C)N(Cc4ccc(F)cc4)C[C@H]3C)cc12 [compound 51]
30 nM	COCn1cc(C(=O)C(N)=O)c2cc(C(=O)N3C[C@H](C)N(Cc4ccc(F)cc4)C[C@H]3C)c(OC)nc21 [compound 53]
50 nM	CNC(=O)C(=O)c1cn(COC)c2nc(OC)c(C(=O)N3C[C@H](C)N(Cc4ccc(F)cc4)C[C@H]3C)cc12 [compound 54]
20 nM	COCn1cc(C(=O)C(=O)N(C)C)c2cc(C(=O)N3C[C@H](C)N(Cc4ccc(F)cc4)C[C@H]3C)c(OC)nc21 [compound 55]

IC50	SMILES
40 nM	COCn1cc(C(=O)C(=O)N2CCCC2)c2cc(C(=O)N3C[C@H](C)N(Cc4ccc(F)cc4)C[C@H]3C)c(OC)nc21 [compound 56]
30 nM	CCNC(=O)C(=O)c1c[nH]c2nc(OCC)c(C(=O)N3C[C@H](C)N(Cc4ccc(F)cc4)C[C@H]3C)cc12 [compound 57]
50 nM	CCOc1nc2[nH]cc(C(=O)C(=O)NC(C)C)c2cc1C(=O)N1C[C@H](C)N(Cc2ccc(F)cc2)C[C@H]1C [compound 58]
30 nM	CCOc1nc2[nH]cc(C(=O)C(=O)N3CCCC3)c2cc1C(=O)N1C[C@H](C)N(Cc2ccc(F)cc2)C[C@H]1C [compound 59]
160 nM	Cc1nc2c(ccn2C)cc1C(=O)N1C[C@H](C)N(Cc2ccc(F)cc2)C[C@H]1C [compound 60]
90 nM	CNC(=O)C(=O)c1cn(C)c2nc(C)c(C(=O)N3C[C@H](C)N(Cc4ccc(F)cc4)C[C@H]3C)cc12 [compound 61]
70 nM	CNC(=O)C(=O)c1c[nH]c2nc(C)c(C(=O)N3C[C@H](C)N(Cc4ccc(F)cc4)C[C@H]3C)cc12 [compound 62]
30 nM	Cc1nc2[nH]cc(C(=O)C(=O)N(C)C)c2cc1C(=O)N1C[C@H](C)N(Cc2ccc(F)cc2)C[C@H]1C [compound 63]
80 nM	CCNC(=O)C(=O)c1c[nH]c2nc(C)c(C(=O)N3C[C@H](C)N(Cc4ccc(F)cc4)C[C@H]3C)cc12 [compound 64]
80 nM	Cc1nc2[nH]cc(C(=O)C(=O)N3CCCC3)c2cc1C(=O)N1C[C@H](C)N(Cc2ccc(F)cc2)C[C@H]1C [compound 65]
80 nM	Cc1nc2[nH]cc(C(=O)C(N)=O)c2cc1C(=O)N1C[C@H](C)N(Cc2ccc(F)cc2)C[C@H]1C [compound 66]
750 nM	C[C@@H]1CN(Cc2ccc(F)cc2)[C@@H](C)CN1C(=O)c1ccc2[nH]ccc2n1 [compound 67]
760 nM	COC(=O)C(=O)c1c[nH]c2ccc(C(=O)N3C[C@H](C)N(Cc4ccc(F)cc4)C[C@H]3C)nc12 [compound 68]
700 nM	C[C@@H]1CN(Cc2ccc(F)cc2)[C@@H](C)CN1C(=O)c1ccc2[nH]cc(C(=O)C(=O)O)c2n1 [compound 69]
600 nM	CNC(=O)C(=O)c1c[nH]c2ccc(C(=O)N3C[C@H](C)N(Cc4ccc(F)cc4)C[C@H]3C)nc12 [compound 70]
34 nM	COC(=O)C(=O)c1c[nH]c2cc(Cl)c(C(=O)N3C[C@H](C)N(Cc4ccc(F)cc4)C[C@H]3C)nc12 [compound 71]
14 nM	C[C@@H]1CN(Cc2ccc(F)cc2)[C@@H](C)CN1C(=O)c1nc2c(C(=O)C(=O)O)c[nH]c2cc1Cl [compound 72]
20 nM	CNC(=O)C(=O)c1c[nH]c2cc(Cl)c(C(=O)N3C[C@H](C)N(Cc4ccc(F)cc4)C[C@H]3C)nc12 [compound 73]
98 nM	COc1cc2[nH]ccc2nc1C(=O)N1C[C@H](C)N(Cc2ccc(F)cc2)C[C@H]1C [compound 74]
